Laboratory results: patent US20060194230A1, “Genetic markers associated with benign prostatic hyperplasia” (BAYLOR COLLEGE OF MEDICINE, priority 2005, published 2006)

B1: IFNγ: interferon-γ used to stimulate prostate cell lines, 100 U/ml (protein, UniProt P01579 24-161, looked up)
Interferon gamma: QDPYVKEAENLKKYFNAGHSDVADNGTLFLGILKNWKEESDRKIMQSQIVSFYFKLFKNFKDDQSIQKSVETIKEDMNVKFFNSNKKKRDDFEKLTNYSVTDLNVQRKAIHELIQVMAELSPAAKTGKRKRSQMLFRG

What was measured:
[1] = test system: prostate transition zone tissue; assay: Microarray (Affymetrix U133 Plus 2.0) gene expression in prostates of patients treated with finasteride, tamsulosin or both before radical prostatectomy (Table 7); type: in vivo, human; conditions: patients treated 2, 4 or 6 weeks before prostatectomy; minus sign = down regulation
Protocol: In non-limiting exemplary embodiments of the invention, a randomized, open-label, single-center study was performed to determine the spatio-temporal changes in gene expression within the prostate of patients who receive 0.4 mg of Flomax® (tamsulosin) capsules daily, 5 mg of Proscar® (finasteride) tablets daily, or both for either 6, 4, or 2 weeks prior to radical prostatectomy. Tissue samples from radical prostatectomy specimens were obtained under an ongoing IRB-approved protocol (H-1158). Zone-specific tissue samples from patients undergoing radical prostatectomy for clinically localized prostate cancer were harvested and frozen in liquid nitrogen for later analysis. In addition to prostate cancer tissue samples, samples from the transition zone from these patients have also been harvested. Participants were randomly allocated to one of three drug treatment arms, after being categorized into one of three groups according to the duration from enrollment date to scheduled surgery date. BPH related symptoms were assessed using self-administered BPH symptom questionnaires at day of enrollment and every 2 weeks (no clinic visit required) until surgery. Medication compliance is assessed at the time of radical prostatectomy. FIG. 1 illustrates an exemplary randomized block design with variable block size for randomly assigning participants to nine treatment groups. After standard quality control analysis of extracted mRNA, 20 samples from patient prostates treated with either finasteride, tamsulosin, or both drugs together for 2, 4, or 6 weeks, were subjected to microarray chip hybridization (in conjunction with the Baylor College of Medicine Microarray Core Facility). In Table 6, patients were treated with the 5-alpha reductase inhibitor, Finasteride (FIN), or the alpha-1 adrenergic receptor antagonist, Tamsulosin (TAM), or both drugs together (FIN+TAM) for the times indicated prior to prostatectomy. Samples were used in Affymetrix U133 Plus 2.0 microarray analysis as shown. Through this analysis, a number of genes (listed in Table 7) were identified whose expression was modulated by drug treatment. These genes are associated with inflammatory pathways (an exemplary embodiment of which is provided in FIG. 2), Wnt signaling pathway (an exemplary embodiment of which is provided in FIG. 3); cell signaling and cell cycle regulatory pathway (an exemplary embodiment of which is provided in FIG. 4), or extracellular matrix remodeling. Although several of these genes have previously been implicated in prostate cancer progression, they have not been described in connection with progression of BPH or in connection with the exemplary drug treatment regimes described above. In Table 7, there are polynucleotides showing 1.3-77 fold changes in expression level after drug treatment. Down regulation after drug treatment is signified by “-” in front of the fold change. In particular embodiments, the information may be obtained at particular timepoints following the onset of therapy, such as about 1 day, 2 days, 3 days, 4 days, 5 days, 6 days, 1 week, 2 weeks, 3 weeks, 4 weeks, 5 weeks, 6 weeks, 7 weeks, 8 weeks, or combinations thereof, or more or less, for example. In the specific embodiments wherein more than one timepoint is evaluated, an average of the timepoints may be obtained.

[2] = test system: TZ BPH prostate tissue; assay: Microarray gene expression in TZ BPH nodular tissue of drug treated patients, dChip/ANOVA analysis (Table 11); type: in vivo, human; conditions: for expression of the five markers MIG (CXCL9), IP 10 (CXCL10), I-TAC (CXCL11), Contactin-1 (CNTN1), Dickkopf-3 (DKK3): TZ BPH tissue from treated patients versus untreated BPH tissue
Description: In specific embodiments of the present invention, the inventors employed the exemplary Affymetrix U133 Plus 2.0 whole genome microarrays to profile gene expression in the transition zone (TZ) of small (≦30 g) and big (≧70 g) prostates. In addition, they also profiled gene expression changes in TZ benign prostatic hyperplasia (BPH) tissue from patients treated with α1-receptor blockade (tamsulosin), 5α-reductase type II inhibition (finasteride), or both medications combined. Integrating the results from these profiles led to the discovery of 5 exemplary polynucleotides that in specific embodiments are diagnostic and/or prognostic biomarkers for BPH. These exemplary markers include the three interferon inducible pro-inflammatory chemokines, MIG (CXCL9), IP 10 (CXCL10), and I-TAC (CXCL11), the adhesion molecule Contactin-1 (CNTN1), the Wnt pathway signaling inhibitor Dickkopf-3 (DKK3), and any combination thereof. […] In further specific embodiments, the mechanisms by which these inflammatory BPH markers are induced and their influence on prostate hyperplasia is determined.
To address the second specific embodiment, patients awaiting radical prostatectomy were given a standard therapeutic course of tamsulosin, finasteride or both tamsulosin and finasteride for 2, 4, or 6 weeks prior to surgery. TZ BPH nodular tissue was isolated post surgery. Total RNA was purified from 24 samples from individual patients and analyzed using Affymetrix U133 Plus 2.0 microarrays. Of the 24 arrays run on drug treated patient prostates, 7 were ultimately excluded from the final analysis due poor signal quality within the arrays.
Expression levels from drug treated prostate tissue were analyzed with dChip. Comparison of changes in gene expression between drugs and between time of therapy was performed by ANOVA. This initial analysis yielded 3568 genes with significant a difference (p≦0.01) in at least 1 comparison. […] Genes regulated by drug treatment were grouped by pathway or common function and those showing multiple changes in expression are shown in Table 11.

[3] = test system: prostate RNA samples; assay: Real-time quantitative RT-PCR validation in prostate samples from drug treated patients; type: in vivo, human; conditions: BPH nodules, drug treatment versus no drug
Protocol: To further refine the list of genes profiled in the microarray studies, the differential expression of 30 of these genes were tested by real-time quantitative RT-PCR (Q-RT-PCR). Since Q-RT-PCR is based on the detection of small amplimers (80-150 base pairs) it. is less affected by RNA degradation than microarrays. This allowed the inventors to used a larger sample set of prostate RNA than were included in the microarray analyses. The inventors tested […] small and 10 big prostate samples (including the 15 samples from the array analysis) and 24 samples from drug treated patients (10 treated with finasteride, 7 treated with tamsulosin, and 7 treated with both drugs). Individual comparisons were made between small and big prostates and between no drug (all 18 small and big samples) and drug treatments for each therapy drug condition without consideration of the treatment duration. Several groups of genes validated with significant differences by Q-RT-PCR between small and big prostate and/or those regulated by at least one drug treatment. The three pro-inflammatory chemokines CXCL9 (MIG), CXCL10 (IP-10), and CXCL11 (I-TAC) are best known for production by monocytes as chemotactic agents for T cells (Kim and Broxmeyer, 1999). […]

[4] = test system: hyperplastic prostatic tissue; conditions: cited from earlier work
[5] = test system: prostate cell lines; assay: Induction of potential BPH markers in prostate cell lines cultured with androgen or inflammatory agents; type: cell-based, human; conditions: non-cancer prostate cell lines cultured in the presence of the agent
Protocol: To confirm the expression of CXCL9, 10 and 11, contactin 1 and CXCR3 in prostate tissue, the present inventors examined several non-cancer prostate cell lines for these markers. The prostate epithelial cells RWPE-1 and PWR-1E are androgen responsive nomal or hyperplastic cells transformed with HPV1828, 29. The epithelial cell line BPH 130 is originated from BPH tissue transformed with SV40 T antigen. […] Cells were cultured in their prescribed media and were fixed, permeabilized and stained by standard methods and analyzed by single color flow cytometry. […] To determine if prostate cell expression of CXCL chemokines was responsive to interferon stimulation, stromal and epithelial cell lines were cultured in the presence of IFNγ. Chemokine induction was measured by Q-RT-PCR and is shown as fold induction over basal expression in untreated cells (FIG. 12).

[6] = test system: prostate cell lines; type: cell-based, human; conditions: 4 prostate cell lines, with or without 100 U/ml IFNγ, Q-RT-PCR
Protocol: 4 prostate cell lines were cultured in media with or without 100 U/ml IFNγ. Chemokine expression was determined by Q-RT-PCR and induction calculated using the 2^−ΔΔCt method compared to untreated cells.
To confirm the expression of CXCL9, 10 and 11, contactin 1 and CXCR3 in prostate tissue, the present inventors examined several non-cancer prostate cell lines for these markers. The prostate epithelial cells RWPE-1 and PWR-1E are androgen responsive nomal or hyperplastic cells transformed with HPV1828, 29. The epithelial cell line BPH 130 is originated from BPH tissue transformed with SV40 T antigen. The cell lines HTS-2T and HPS-19B are primary prostate stromal cell lines from TZ and PZ, respectively (Singh et al., 2004). Cells were cultured in their prescribed media and were fixed, permeabilized and stained by standard methods and analyzed by single color flow cytometry. The chemokines CXCL9, 10 and 11 were present in all cells tested as was contactin 1 (FIG. 11). DKK3 was not tested for lack of a suitable antibody for flow cytometric analysis. CXCR3 was highly expressed in all the cells. […] Chemokine induction was measured by Q-RT-PCR and is shown as fold induction over basal expression in untreated cells (FIG. 12). […]

[7] = treatment with drug between 2 and 6 weeks, TZ BPH tissue

| Molecule | CKTSF1B1 (Gremlin) expression fold change after drug treatment [1] [fold] | CXCL9 expression fold change after drug treatment [1] [fold] | CXCL10 expression fold change after drug treatment [1] [fold] | CXCL11 expression fold change after drug treatment [1] [fold] | CyclophilinC expression fold change after drug treatment [1] [fold] | Frizzled 10 expression fold change after drug treatment [1] [fold] | HLA-DP expression fold change after drug treatment [1] [fold] | HS3ST3B1 expression fold change after drug treatment [1] [fold] | ORM1 expression fold change after drug treatment [1] [fold] | VEGF expression fold change after drug treatment [1] [fold] | WIF1 expression fold change after drug treatment [1] [fold] | expression of the five markers MIG (CXCL9), IP 10 (CXCL10), I-TAC (CXCL11), Contactin-1 (CNTN1), Dickkopf-3 (DKK3) [2] | CKTSF1B1 (Gremlin) differential gene expression [2, 7] [fold] | CXCL9 differential gene expression [2, 7] [fold] | HLA-DP differential gene expression [2, 7] [fold] | HS3ST3B1 differential gene expression [2, 7] [fold] | ORM1 differential gene expression [2, 7] [fold] | VEGF differential gene expression [2, 7] [fold] | WIF1 differential gene expression [2, 7] [fold] | expression of chemokines CXCL9 (MIG), CXCL10 (IP-10), CXCL11 (I-TAC) [3] | other results |
| --- | --- | --- | --- | --- | --- | --- | --- | --- | --- | --- | --- | --- | --- | --- | --- | --- | --- | --- | --- | --- | --- |
| CC(C)(C)NC(=O)[C@H]1CC[C@H]2[C@@H]3CC[C@H]4NC(=O)C=C[C@]4(C)[C@H]3CC[C@]12C [Finasteride, finasteride] | −4.10 | −2.85 | −2.01 | −2.62 | −2.52 | −2.45 | −2.29 | −2.29 | 2.38 | −2.15 | −7.53 | decreased | −4.10 | −3.61 | −2.29 | −2.29 | 2.38 | −2.15 | −7.53 | decreased | DKK3 expression fold change after drug treatment [1]: −2.28 fold; KLK4 expression fold change after drug treatment [1]: −3.47 fold; SPROUTY2 expression fold change after drug treatment [1]: −1.94 fold; ZNF36 expression fold change after drug treatment [1]: −1.55 fold; CTNNB1 differential gene expression [2, 7]: 2.26 fold; Frizzled 10 differential gene expression [2, 7]: −2.45 fold; KLK4 differential gene expression [2, 7]: −3.47 fold; reduction of prostate growth ([4]; over the first year, without recurrance of significant prostatic growth): ≤ 20% |
| C[C@]1(O)CC[C@H]2[C@@H]3CCC4=CC(=O)CCC4=C3C=C[C@@]21C [R1881] |  |  |  |  |  |  |  |  |  |  |  |  |  |  |  |  |  |  |  |  | changes in BPH marker expression (CXCL9, 10, 11, contactin 1, CXCR3) [5]: No changes |
| COc1cc2nc(N3CCN(C(=O)C4COc5ccccc5O4)CC3)nc(N)c2cc1OC (stereo not shown) [doxazosin] |  |  |  |  |  |  |  |  |  |  |  |  |  |  |  |  |  |  |  |  | apoptosis in the stromal compartment of hyperplastic prostatic tissue ([4]; alpha blockade): increases; overall re-occurrence rate of BPH ([4]; alpha blockade): does not decrease |
| CCOc1ccccc1OCCN[C@H](C)Cc1ccc(OC)c(S(N)(=O)=O)c1 [Tamsulosin, tamsulosin] | −4.76 | −3.37 | −4.65 | −5.81 | −1.87 | −1.82 | −2.33 | −2.20 | 76.96 | −2.01 | −4.60 | decreased | −4.76 | −2.86 | −2.33 | −2.20 | 76.96 | −2.01 | −4.60 | decreased | Cbl-b expression fold change after drug treatment [1]: 1.30 fold; Dicer 1 expression fold change after drug treatment [1]: 1.30 fold; DKK3 differential gene expression [2, 7]: −2.85 fold |
| B1 |  |  |  |  |  |  |  |  |  |  |  |  |  |  |  |  |  |  |  |  | CXCL chemokine expression in prostate cells [6]: up-regulated |
